The values that follow come from patent publication US9187529B2 (priority 2011, dated 2015).

Several values for one entry are separate records, joined by “and”; a condition that tells them apart may be missing. Identical values can stand only once. Ends that are not written are not given here. Peptide text beside a SMILES is read from it.

The subject of data set [1] is TSST-1 production of S. aureus MN8. The class given is cell-based, Staphylococcus aureus.
In another data set the test system is S. aureus MN8. The class given is cell-based, Staphylococcus aureus.
For data set [2] the following is noted: rabbit, in vivo.

In the case of “SFPTTKTYFPHFDLSHGSAQVK-agarose beads (not fully specified (C-terminus)) [Hbg-3]”, the TSST-1 inhibition activity result in data set [1] is “retained TSST-1 inhibition activity”. Besides, in the data set on S. aureus MN8, the antimicrobial activity entry is listed as “not antimicrobial”; the “viable count (10^8 CFU/mL)” value is 21 and 22 and 16 and 20 and 23.
Regarding “human neutrophil peptide-1 [HNP-1, reference compound]”, in data set [1], the TSST-1 inhibition activity entry is reported as “highly inhibitory of production of TSST-1” and the “dose (as low as) giving complete inhibition of TSST-1 production” value is 10^−3 μg/mL. Further, in the data set with S. aureus MN8, the antimicrobial activity result is on record as “no antimicrobial activity was observed” and the “inhibition of MN8 growth” value is “approximately 1 log”.
For the compound SFPTTATYFPAFDLSAGSAQVA [SP-3], in data set [1], the “TSST-1 % of No Peptide Control” value was 100 % of No Peptide Control; the TSST-1 inhibition activity entry is “lacked antimicrobial and TSST-1 inhibition activity”. Besides, the antimicrobial activity result in the data set with S. aureus MN8 was “lacked antimicrobial”.
As to `C[C@H](NC(=O)[C@H](CO)NC(=O)[C@H](CCCCN)NC(=O)[C@H](Cc1c[nH]cn1)NC(=O)[C@H](CO)NC(=O)[C@H](CCCCN)NC(=O)[C@H](CCCCN)NC(=O)[C@H](CCCCN)NC(=O)[C@H](Cc1c[nH]cn1)NC(=O)[C@@H]1CCCN1C(=O)[C@H](CCCCN)NC(=O)[C@H](Cc1ccc(O)cc1)NC(=O)[C@H](CCCCN)NC(=O)[C@H](CCCCN)NC(=O)[C@H](CCCCN)NC(=O)[C@H](CCCCN)NC(=O)[C@@H]1CCCN1C(=O)[C@H](CCCCN)NC(=O)[C@@H](N)CO)C(=O)N[C@@H](CCCCN)C(=O)N[C@@H](CCCCN)C(=O)N[C@@H](CCCCN)C(=O)O` [SP-1] (H-SKPKKKKYKPHKKKSHKSAKKK-OH), in data set [2], the “signs of inflammation and vaginal irritation” value is “No irritation or inflammation was observed”.
With SFPTTKTYFPHFDLSHGSAQVK [Hbg-1], in the data set with S. aureus MN8, the antimicrobial activity entry is given as “No antimicrobial activity was observed”; the “viable count (10^8 CFU/mL)” value was 20 and 22 and 17 and 21 and 19 and 25.
As for “human neutrophil peptide-2 (CYCRIPACIAGERRYGTCIYQGRLWAFCC; listed as Homo sapiens) [HNP-2, reference compound]”, in data set [1], the TSST-1 inhibition activity result is recorded as “highly inhibitory of production of TSST-1” and the “dose (as low as) giving complete inhibition of TSST-1 production” value is on record as 10^−3 μg/mL. Moreover, in the data set on S. aureus MN8, the antimicrobial activity result is reported as “no antimicrobial activity was observed” and the “inhibition of MN8 growth” value is reported as “approximately 1 log”.
In the case of STKPFFYFLHTQVKASPTSHDG [Hbg-2], in data set [1], the TSST-1 inhibition activity result is on record as “comparably active as Hbg-1”. Further, in the data set on S. aureus MN8, the antimicrobial activity entry is “not antimicrobial”; the “viable count (10^8 CFU/mL)” value is 24 and 22 and 30 and 25 and 23.
